Literature values, collected in paper PMC6099735, “Piplartine Analogues and Cytotoxic Evaluation against Glioblastoma” (Molecules : A Journal of Synthetic Chemistry and Natural …, 2018).

What was measured:
Design in all cases: method as in PMID 25920262
Conditions in all cases: MTT test; cited from earlier work
[1] = system: HL-60 (human leukemic cell)
[2] = system: HCT (human colon carcinoma)
[3] = system: BF16F10-Nex2 (murine melanoma)
[4] = system: HeLa (human cervical carcinoma)
A2258 (human melanoma) = system: A2258 (human melanoma)
[5] = system: U87MG (human glioblastoma)

Measured: IC50

COc1cc(/C=C/C(=O)N2CCC=CC2=O)cc(OC)c1OC [Compound 1, Piplartine]
> 200 µg/mL: all assays above
